Assay [1] deals with RNR (RNR1:RNR2 1:1) (Homo sapiens (Human), UniProt P23921). In words: RNR enzyme activity, rapid-fire mass spectrometry (RF/MS) assay. The conditions noted are these: RNR 50 nM, 1:1 RNR1:RNR2; CDP 5 μM, ATP 1 mM; 37° C., 45 min; compounds screened up to 50 μM. Type of assay: biochemical. How it is done:
A rapid-fire mass spectrometry (RF/MS) assay was used to assess RNR enzyme activity using a 384 well plate and a robotic platform.
The plate layout included two validated reference compounds (Triapine (3-AP) and Hydroxyurea (HU)): • A dose response in duplicate; top concentration: 5 μM (3-AP) and 250 μM (HU), semi-log • dilutions. • Spike wells in triplicate randomly spotted at four concentrations: • 250 μM, 100 μM, 30 μM and 2 μM for HU • 5 μM, 2 μM, 0.6 μM and 0.04 μM for 3-AP
First, the multidrop pipes were saturated for 30 minutes with enzymatic solution. Then 30 μL of Stop solution was distributed in column 24. Next, 15 μL of enzyme was distributed in column 1 to 24. Next, a pre-incubation step of 15 minutes at room temperature occurred, followed by distribution of 15 μL of substrate solution (column 1 to 24). Next, the plate was incubated for 45 minutes at 37° C. 30 μL of Stop solution was distributed to columns 1 to 23.
The final parameters for the enzyme reactions were: • Incubation: 37° C., 45 min • [CDP]: 5 μM; [ATP]: 1 mM; [NADPH]: No • [RNR]final: 50 nM with 1:1 (RNR1:RNR2) ratio • Final volume: 30 μL • Stop solution: 6% HCOOH containing 2 μM of 15

Assay [2] deals with pCHK1 (S345) in Colo320 DM cells. In words: Alphalisa assay: pCHK1 (S345) detection in Colo320 DM cells. The format is cell-based, human. The conditions noted are these: compound incubation overnight (approximately 16 hours), pCHK1 (S345) AlphaLisa Sure Fire kit. On the procedure: Colo320 DM cells (ATCC #CCL-220, derived from human colorectal adenocarcinoma, Dukes' type C) were seeded on a 96-well, cell culture treated assay plate at a density of 50,000 cells/well in 200 μL of RPMI-1640 media supplemented with 10% Fetal Bovine Serum and incubated at 37 degrees Celsius overnight. The following day, test compound dilutions were added directly to the plated cells by a Tecan digital dispenser to a final DMSO concentration of <0.5%. and incubated at 37 degrees Celsius overnight (approximately 16 hours). The following day all cull culture media was removed from the cells. 75 μL of 1× AlphaLisa lysis buffer was added to each well and plates were agitated on a shaker for 30 minutes at room temperature. The lysis of cells and detection of pCHK1 (S345) were performed with regents contained within the AlphaLisa Sure Fire assay kit (Perkin Elmer #ALSU-PCHK1-A) according to the manufacturer's instructions. 10 μL of each lysate was then transferred to a white, 384-well assay plate (Perkin Elmer #6008280). 5 μL of Acceptor mix was then added to each well of lysate in the white, 384-well assay plate and incubated in the dark at room temperature for 60 minutes. 5 μL of Donor mix was then added to each well of the white, 384-well assay plate in subdued light and incubated at room temperature for 60 minutes. Plates were read on an Alpha Technology-compatible plate reader using standard AlphaLisa settings.

The structures appear in SMILES notation.

RNR (RNR1:RNR2 1:1), sequence (P23921 whole entry): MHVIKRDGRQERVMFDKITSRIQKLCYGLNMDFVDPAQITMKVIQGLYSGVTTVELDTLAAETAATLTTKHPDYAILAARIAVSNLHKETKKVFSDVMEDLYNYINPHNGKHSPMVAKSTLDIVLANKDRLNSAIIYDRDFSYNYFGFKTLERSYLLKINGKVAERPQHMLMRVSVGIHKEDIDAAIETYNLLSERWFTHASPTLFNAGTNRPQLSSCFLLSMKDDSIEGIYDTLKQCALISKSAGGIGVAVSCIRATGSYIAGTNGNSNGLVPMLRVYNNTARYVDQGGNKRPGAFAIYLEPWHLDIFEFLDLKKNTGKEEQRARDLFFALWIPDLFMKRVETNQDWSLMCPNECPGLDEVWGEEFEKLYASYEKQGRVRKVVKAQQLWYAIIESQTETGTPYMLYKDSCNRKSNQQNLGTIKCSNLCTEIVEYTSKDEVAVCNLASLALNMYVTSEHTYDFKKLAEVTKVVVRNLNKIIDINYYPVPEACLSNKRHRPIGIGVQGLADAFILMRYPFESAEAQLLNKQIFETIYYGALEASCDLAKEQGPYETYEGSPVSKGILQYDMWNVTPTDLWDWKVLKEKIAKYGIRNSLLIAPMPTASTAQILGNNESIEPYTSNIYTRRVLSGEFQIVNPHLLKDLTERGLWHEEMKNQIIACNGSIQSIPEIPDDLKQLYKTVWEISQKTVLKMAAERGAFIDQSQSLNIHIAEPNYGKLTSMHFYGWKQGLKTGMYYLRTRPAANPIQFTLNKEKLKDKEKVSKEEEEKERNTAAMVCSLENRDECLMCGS

The term IC50 denotes the concentration at which inhibition is half-maximal. As to `Cc1ccc(F)c([C@H](C)[C@@H](c2n[nH]c(=O)o2)N2C(=O)c3cc(Cl)ccc3S2(=O)=O)c1C` [Example 2, 5-((1S,2S)-1-(5-chloro-1,1-dioxido-3-oxobenzo[d]isothiazol-2(3H)-yl)-2-(6-fluoro-2,3-dimethylphenyl)propyl)-1,3,4-oxadiazol-2(3H)-one], the concentration for half-maximal inhibition (IC50) in assay [1] is 1 to 10 µM; in assay [2] (Homo sapiens, COLO 320DM), greater than 50 µM.

As for `COc1cc(Cl)cc2c1S(=O)(=O)N([C@@H](c1n[nH]c(=O)o1)[C@@H](C)c1c(F)ccc(C)c1C)C2=O` (stereo in doubt) [Example 15, 5-((1R,2S)-1-(5-chloro-7-methoxy-1,1-dioxido-3-oxobenzo[d]isothiazol-2(3H)-yl)-2-(6-fluoro-2,3-dimethylphenyl)propyl)-1,3,4-oxadiazol-2(3H)-one], the half-inhibitory concentration (IC50) is 10 to 100 µM in assay [1] and greater than 50 µM in assay [2] (Homo sapiens, COLO 320DM).

Consider `COc1cc(Cl)cc2c1S(=O)(=O)N([C@@H](c1n[nH]c(=O)o1)[C@H](C)c1c(F)ccc(C)c1C)C2=O` (stereo in doubt) [Example 4, 5-((1R,2R)-1-(5-chloro-7-methoxy-1,1-dioxido-3-oxobenzo[d]isothiazol-2(3H)-yl)-2-(6-fluoro-2,3-dimethylphenyl)propyl)-1,3,4-oxadiazol-2(3H)-one], for which the half-inhibitory concentration (IC50) in assay [1] was 10 to 100 µM; in assay [2] (Homo sapiens, COLO 320DM), greater than 50 µM.

For the compound `Cc1ccc(F)c(C(C)[C@@H](c2n[nH]c(=O)o2)N2C(=O)Cc3cc(Cl)ccc3S2(=O)=O)c1C` (stereo partly drawn) [Example 17, 5-((1S)-1-(6-chloro-1,1-dioxido-3-oxo-3,4-dihydro-2H-benzo[e] [1,2]thiazin-2-yl)-2-(6-fluoro-2,3-dimethylphenyl)propyl)-1,3,4-oxadiazol-2(3H)-one], the half-maximal inhibitory concentration (IC50) was 10 to 100 µM in assay [1] and greater than 50 µM in assay [2] (Homo sapiens, COLO 320DM).

For the compound `Cc1ccc(F)c(C(C)[C@@H](c2n[nH]c(=O)o2)N2CC(C)c3cc(Cl)ccc3S2(=O)=O)c1C` (stereo partly drawn) [Example 20, 5-((1S)-1-(6-chloro-4-methyl-1,1-dioxido-3,4-dihydro-2H-benzo[e][1,2]thiazin-2-yl)-2-(6-fluoro-2,3-dimethylphenyl)propyl)-1,3,4-oxadiazol-2(3H)-one], the concentration for half-maximal inhibition (IC50) in assay [1] was no more than 0.1 µM; in assay [2] (Homo sapiens, COLO 320DM), no more than 5 µM.

As for `Cc1ccc(F)c([C@@H](C)[C@@H](c2n[nH]c(=O)o2)N2CCc3ccc(Cl)cc3S2(=O)=O)c1C` [Example 11, 5-((1S,2R)-1-(7-chloro-1,1-dioxido-3,4-dihydro-2H-benzo[e][1,2]thiazin-2-yl)-2-(6-fluoro-2,3-dimethylphenyl)propyl)-1,3,4-oxadiazol-2(3H)-one], the concentration for half-maximal inhibition (IC50) in assay [1] was 0.1 to 1 µM; in assay [2] (Homo sapiens, COLO 320DM) it was greater than 50 µM.

In the case of `Cc1ccc(F)c([C@H](C)[C@@H](c2n[nH]c(=O)o2)N2CCCc3cc(Cl)ccc3S2(=O)=O)c1C` [Example 10, 5-((1S,2S)-1-(7-chloro-1,1-dioxido-4,5-dihydrobenzo [f][1,2]thiazepin-2(3H)-yl)-2-(6-fluoro-2,3-dimethylphenyl)propyl)-1,3,4-oxadiazol-2(3H)-one], the half-inhibitory concentration (IC50) is 10 to 100 µM in assay [1] and greater than 50 µM in assay [2] (Homo sapiens, COLO 320DM).

For `Cc1ccc(F)c([C@@H](C)[C@@H](c2n[nH]c(=O)o2)N2CCc3cc(Cl)ccc3S2(=O)=O)c1C` [Example 7, 5-((1S,2R)-1-(6-chloro-1,1-dioxido-3,4-dihydro-2H-benzo[e][1,2]thiazin-2-yl)-2-(6-fluoro-2,3-dimethylphenyl)propyl)-1,3,4-oxadiazol-2(3H)-one], the concentration for half-maximal inhibition (IC50) in assay [1] is no more than 0.1 µM; in assay [2] (Homo sapiens, COLO 320DM) it was no more than 5 µM.

For `COc1cc(Cl)cc2c1S(=O)(=O)N([C@H](c1n[nH]c(=O)o1)[C@H](C)c1c(F)ccc(C)c1C)C2` [Example 6, 5-((1S,2R)-1-(5-chloro-7-methoxy-1,1-dioxidobenzo [d]isothiazol-2(3H)-yl)-2-(6-fluoro-2,3-dimethylphenyl)propyl)-1,3,4-oxadiazol-2(3H)-one], the IC50 in assay [1] is 1 to 10 µM; in assay [2] (Homo sapiens, COLO 320DM) it was greater than 50 µM.

In the case of `Cc1ccc(F)c([C@@H](C)[C@@H](c2n[nH]c(=O)o2)N2CC(F)(F)c3cc(Cl)ccc3S2(=O)=O)c1C` [Example 22, 5-((1S,2R)-1-(6-chloro-4,4-difluoro-1,1-dioxido-3,4-dihydro-2H-benzo[e][1,2]thiazin-2-yl)-2-(6-fluoro-2,3-dimethylphenyl)propyl)-1,3,4-oxadiazol-2(3H)-one], the IC50 in assay [1] lay within 0.1 to 1 µM; in assay [2] (Homo sapiens, COLO 320DM), 5 to 10 µM.

For `Cc1ccc(F)c([C@@H](C)[C@@H](c2nn[nH]n2)N2CCc3cc(Cl)ccc3S2(=O)=O)c1C` [Example 13, 6-chloro-2-((1S,2R)-2-(6-fluoro-2,3-dimethylphenyl)-1-(2H-tetrazol-5-yl)propyl)-3,4-dihydro-2H-benzo[e][1,2] thiazine 1,1-dioxide], the IC50 in assay [1] was no more than 0.1 µM; in assay [2] (Homo sapiens, COLO 320DM), 5 to 10 µM.

Turning to `Cc1ccc(F)c([C@H](C)[C@H](c2n[nH]c(=O)o2)N2CCc3cc(Cl)ccc3S2(=O)=O)c1C` [Example 8, 5-((1R,2S)-1-(6-chloro-1,1-dioxido-3,4-dihydro-2H-benzo[e][1,2]thiazin-2-yl)-2-(6-fluoro-2,3-dimethylphenyl)propyl)-1,3,4-oxadiazol-2(3H)-one], the IC50 in assay [1] is 10 to 100 µM; in assay [2] (Homo sapiens, COLO 320DM), greater than 50 µM.

In the case of `COc1cc(Cl)cc2c1S(=O)(=O)N([C@H](c1n[nH]c(=O)o1)[C@@H](C)c1c(F)ccc(C)c1C)C2` [Example 5, 5-((1S,2S)-1-(5-chloro-7-methoxy-1,1-dioxidobenzo [d]isothiazol-2(3H)-yl)-2-(6-fluoro-2,3-dimethylphenyl)propyl)-1,3,4-oxadiazol-2(3H)-one], the half-maximal inhibitory concentration (IC50) was 10 to 100 µM in assay [1] and greater than 50 µM in assay [2] (Homo sapiens, COLO 320DM).

Regarding `Cc1ccc(F)c([C@H](C)[C@@H](c2n[nH]c(=O)o2)N2CCc3ccc(Cl)cc3S2(=O)=O)c1C` [Example 12, 5-((1S,2s)-1-(7-chloro-1,1-dioxido-3,4-dihydro-2H-benzo[e][1,2]thiazin-2-yl)-2-(6-fluoro-2,3-dimethylphenyl)propyl)-1,3,4-oxadiazol-2(3H)-one], the concentration for half-maximal inhibition (IC50) in assay [1] is 10 to 100 µM; in assay [2] (Homo sapiens, COLO 320DM), greater than 50 µM.

Turning to `Cc1ccc(F)c([C@@H](C)[C@@H](c2n[nH]c(=O)o2)N2CCc3ccccc3S2(=O)=O)c1C` [Example 18, 5-((1S,2R)-1-(1,1-dioxido-3,4-dihydro-2H-benzo[e] [1,2]thiazin-2-yl)-2-(6-fluoro-2,3-dimethylphenyl)propyl)-1,3,4-oxadiazol-2(3H)-one], the IC50 lay in the range of 0.1 to 1 µM in assay [1] and 10 to 50 µM in assay [2] (Homo sapiens, COLO 320DM).

For the compound `Cc1ccc(F)c([C@@H](C)[C@@H](c2n[nH]c(=O)o2)N2CCCc3cc(Cl)ccc3S2(=O)=O)c1C` [Example 9, 5-((1S,2R)-1-(7-chloro-1,1-dioxido-4,5-dihydrobenzo [f][1,2]thiazepin-2(3H)-yl)-2-(6-fluoro-2,3-dimethylphenyl)propyl)-1,3,4-oxadiazol-2(3H)-one], the IC50 in assay [1] was no more than 0.1 µM; in assay [2] (Homo sapiens, COLO 320DM), no more than 5 µM.

In the case of `COc1cc(Cl)cc2c1S(=O)(=O)N([C@@H](c1n[nH]c(=O)o1)[C@@H](C)c1c(F)ccc(C)c1C)C2=O` (stereo in doubt) [Example 3, 5-((1R,2S)-1-(5-chloro-7-methoxy-1,1-dioxido-3-oxobenzo[d]isothiazol-2(3H)-yl)-2-(6-fluoro-2,3-dimethylphenyl)propyl)-1,3,4-oxadiazol-2(3H)-one], the figures for the IC50 in assay [1] and in assay [2] were 10 to 100 µM and greater than 50 µM, respectively.

Take `Cc1ccc(F)c(C(C)[C@@H](c2n[nH]c(=O)o2)N2CC(C)(C)c3cc(Cl)ccc3S2(=O)=O)c1C` (stereo partly drawn) [Example 21, 5-((1S)-1-(6-chloro-4,4-dimethyl-1,1-dioxido-3,4-dihydro-2H-benzo[e][1,2]thiazin-2-yl)-2-(6-fluoro-2,3-dimethylphenyl)propyl)-1,3,4-oxadiazol-2(3H)-one]: the IC50 in assay [1] was 1 to 10 µM; in assay [2] (Homo sapiens, COLO 320DM), greater than 50 µM.

(Values after US20250002486A1, “CYCLIC SULFONAMIDE RIBONUCLEOTIDE REDUCTASE (RNR) INHIBITORS AND USES THEREOF” (Boundless Bio, Inc., priority 2021, published 2025).)
